Bridge positions count the residues as written; N and C are the ends. Peptide text beside a SMILES is read from it.
Assays:
[1] = tested on: signaling proteins in 4T1 MCT cells; assay: Western blot analysis, 4T1 cells; assay type: cell-based, murine
Description: Next, VEGFR2 signaling was investigated in 4T1 MCTs. […] Considering the implication of the PI3K/AKT/mTOR signaling pathway in most human cancers, the effect of C-VGB3 on this pathway was evaluated in 4T1 MCT cells. […] The NF-κB pathway is an important target of AKT, which contributes to abnormal cell proliferation and differentiation, the inhibition of apoptosis, enhanced metastasis, and treatment resistance. Therefore, the inhibition of upstream AKT signaling would be expected to downregulate NF-κB and/or p-NF-κB.
The levels of signaling proteins were investigated by the Western blot assay. 4T1 and HUVE cells stimulated by VEGF (20 ng·mL^−1) were treated with (0.40 μM) or without C-VGB3 (treatment and control groups, respectively) after starvation in a serum-free medium for 24 h. After washing with PBS buffer twice, the cells were treated with RIPA lysis buffer containing (Sigma, St. Louis, MO, USA). Bradford′s test was performed to estimate the protein concentration. Equal amounts of total protein were electrophoresed on a 10% SDS-polyacrylamide gel, separated, and then transferred to a nitrocellulose membrane. Nitrocellulose was soaked in a blocking buffer containing 5% dry milk, Tris-buffered saline, and Tween 20 (TBST) for 1 h at ambient temperature. The nitrocellulose membrane was then washed with wash buffer and treated with antibodies against VEGFR2 p-VEGFR2, AKT, p-AKT, PI3K, mTOR, p-mTOR, NF-κB, p-NFκB, P53, MDM2, Bax, Bcl2, Bid, Bim, Apaf-1, cytochrome c, caspase-9, Fas (CD95), DR4 (CD261), DR5 (CD262), caspase3, caspase7, caspase8, PARP1, ERK 1/2, p-ERK1/2, Ras, Raf, Cdk4, GSK-3β, cyclin D1, vimentin, N-cadherin, E-cadherin, FAK, p-FAK, paxillin, p-paxillin, and β-actin overnight at 4 °C. The next steps were performed as described previously. Because molecular weight ranges of target signaling proteins are very close, individual gels were run for separate signaling proteins (Figure S7).

[2] = tested on: 4T1 cells; assay: TUNEL assay, 4T1 cells; assay type: cell-based, murine; details: 0.40 μM, n = 3, p = 0.0002
From the text: Periodic boundary conditions were used, and bonds were restrained by applying the LINCS algorithm to their equilibrium position. Initial structures were solvated with three-point model water molecules in a cubic box of 1.0 nm to fully cover the protein system in water, following periodic boundary conditions (PBC). The produced system for each peptide was neutralized through the “genion tool” plugin of the GROMACS package by adding ions Na+ and Cl−. Then, the system was minimized for 50000 iterations using the steepest descent (SD) algorithm and using velocity rescaling (modiﬁed Berendsen) temperature coupling and Parrinello-Rahman pressure coupling methods, simulated under an isothermal-isobaric ensemble (NPT) for 5 ns at a constant temperature, the pressure of 300 K, and 1 atm, respectively. The NVT and NPT equilibration was carried out for 50000 steps. The minimization and equilibration procedures were executed, and finally, one system of the peptide was subjected to a 200 ns production run of MD simulations utilizing 2 fs as the time step and coordinates of all atoms were recorded in the form of .trr GROMACS trajectory ﬁle every 10 ps.
2 × 10^3 HUVE or 4T1 cells were cultured in DMEM and RPMI-1640 media, respectively, supplemented with 10% (v/v) FBS overnight. Then, the cells were incubated in the media supplemented with 5% FBS, with PBS or C-VGB3 (0.40 μM). […]

`CC(C)C[C@@H]1NC(=O)CNC(=O)[C@H](CC(=O)O)NC(=O)[C@H](CC(=O)O)NC(=O)[C@@H]2CCCN2C(=O)[C@@H]2CCCN2C(=O)[C@H](CCCNC(=N)N)NC(=O)[C@@H](NC(=O)[C@@H](N)CCC(=O)O)CSSC[C@@H](C(=O)O)NC1=O` [C-VGB3] (H-ECRPPDDGLC-OH; disulfide 2-10) was tested, and the “increase in cleaved PARP1” value ([1]; 4T1 (second of 'respectively'), 0.40 μM, p < 0.0001) was 4.05 fold, the Fas expression ([1]; 4T1, 0.40 μM) was “not affected” and the “increase in Bax/Bcl2 ratio” value ([1]; 4T1, 0.40 μM) was roughly 5.25 fold. The “increased level of cleaved caspase-3” value ([1]; 4T1, 0.40 μM) was 4.0 times, the “increased level of cleaved caspase-7” value ([1]; 4T1, 0.40 μM) was 4.1 times and the “increased level of cleaved caspase-9” value ([1]; 4T1, 0.40 μM) was 3.5 times. For the same molecule, the Bax level ([1]; 4T1, 0.40 μM, p < 0.0001) was “increased”, the DR4 level ([1]; 4T1, 0.40 μM, p < 0.0001) was “increase” and the MDM2 level ([1]; 4T1, 0.40 μM, p < 0.0001) was “markedly decreased”. For the same molecule, the P53 level ([1]; 4T1, 0.40 μM, p < 0.0001) was “enormously increased”, the VEGFR2 level ([1]; 4T1, 0.40 μM, p < 0.0001) was “suppressed” and the paxillin ([1]; 4T1, 0.40 μM, p < 0.0001) was “substantially inhibited”. The p-VEGFR2 level ([1]; 4T1, 0.40 μM, p = 0.0001) was “suppressed”, the p-paxillin ([1]; 4T1, 0.40 μM, p = 0.0001) was “substantially inhibited” and the Apaf-1 ([1]; 4T1, 0.40 μM, p = 0.001) was “promoted”. For the same molecule, the Bcl2 expression ([1]; 4T1, 0.40 μM, p = 0.001) was “decrease”, the Bid expression level ([1]; 4T1, 0.40 μM, p = 0.001) was “increased” and the DR5 level ([1]; 4T1, 0.40 μM, p = 0.001) was “increase”. The E-cadherin expression ([1]; 4T1, 0.40 μM, p = 0.001) was “potently increased”, the FAK ([1]; 4T1, 0.40 μM, p = 0.001) was “substantially inhibited” and the N-cadherin level ([1]; 4T1, 0.40 μM, p = 0.001) was “reduced”. The p-AKT level ([1]; 4T1, 0.40 μM, p = 0.001) was “significantly decreased”, the p-FAK ([1]; 4T1, 0.40 μM, p = 0.001) was “substantially inhibited” and the p-mTOR level ([1]; 4T1, 0.40 μM, p = 0.001) was “significantly decreased”. For the same molecule, the Bim level ([1]; 4T1, 0.40 μM, p = 0.02) was “increased”, the NF-κB level ([1]; 4T1, 0.40 μM, p = 0.02) was “decreased levels” and the PI3K level ([1]; 4T1, 0.40 μM, p = 0.02) was “significantly decreased”. The cytochrome c release ([1]; 4T1, 0.40 μM, p = 0.02) was “promoted”, the mTOR level ([1]; 4T1, 0.40 μM, p = 0.02) was “significantly decreased” and the p-NF-κB level ([1]; 4T1, 0.40 μM, p = 0.02) was “decreased levels”. The vimentin level ([1]; 4T1, 0.40 μM, p = 0.02) was “reduced” and the TUNEL fluorescent labeling [2] was “fluorescent-labeled more than control cells”.
